Laboratory results from US20250049888A1, “USE OF THE NEGR1 PROTEIN AND BIOLOGICALLY ACTIVE FRAGMENTS THEREOF IN THE THERAPEUTIC TREATMENT OF ALK-RELATED DISEASES” (FONDAZIONE TELETHON ETS (70%), priority 2021, published 2025).

Key:
ERK1/2 = ERK1/2 phosphorylation in N2a cells, western or dot blotting; format: cell-based, murine; settings: 10 minutes; for ERK1/2 phosphorylation (phospho-ERK/ERK): synthetic peptides, 10 μM
Method: Protein level and relative phosphorylation was assessed by western blotting. Briefly, upon a wash in PBS, cells were solubilized in lysis buffer (150 mM NaCl, 50 mM HEPES, 0.5% NP40, 1% sodium-deoxycholate). After 1 hour under mild agitation, the lysate was clarified by centrifugation for 20 min at 16,000 g. All experimental procedures were performed at 4° C. Protein concentrations were evaluated via Bradford assay (Bio-Rad, USA). For Western blotting experiments, an equal amount of proteins was diluted with 0.25% 5× Laemmli buffer. The samples were separated on 10% SDS-PAGE gels which were transferred onto nitrocellulose membrane (Sigma-Aldrich) at 80 V for 120 min at 4° C. Primary antibodies were: Beta-actin (Santa Cruz Biotechnology, sc-47778), ALK (Santa Cruz Biotechnology, sc-398791), N-myc (Santa Cruz Biotechnology, sc-56729), Phospho-p44/42 MAPK (Erk1/2) (Thr202/Tyr204) (Cell Signaling Technology), p44/42 MAPK (Erk1/2) (137F5) Rabbit mAb (Cell Signaling Technology), Akt (pan) (11E7) Rabbit mAb (Cell Signaling Technology), Phospho-Akt (Ser473) (D9E) XP® Rabbit mAb (Cell Signaling Technology), S6 Ribosomal Protein (5G10) Rabbit mAb (Cell Signaling Technology). Antibodies were applied overnight in blocking buffer (20 mM Tris, pH 7.4, 150 mM NaCl, 0.1% Tween 20, and 5% nonfat dry milk). Proteins were detected using the ECL prime detection system (GE Healthcare). The ECL signals were acquired with the imaging ChemiDoc Touch system (Bio Rad Laboratory Italy, Segrate, Italy). The optical density of the specific bands was quantified with ImageLab software (Bio Rad).
ALK triggers a signaling cascade that involves ERK and AKT kinases phosphorylation.
Additionally, the N2a cells were treated with the following synthetic peptides: the synthetic version of PepA-1 (synPepA-1), a scramble peptide including the GDKISV sequence (scr-GDKISV, substituting the W, tryptophan, that can undergo oxidation, with I, Isoleucine), and a scramble peptide (10 μM, 10 minutes). […]

N2a cells [1] = assay: N2a cell growth, MTT assay; format: cell-based, murine
Method: (§1) The 3-(4,5-dimethylthiazol-2-yl)-2,5-diphenyl tetrazolium bromide (MTT) assay was performed to evaluate culture vitality. N2a cells were cultured in a 96-well plate at a concentration of 5×10^3 cell/cm^2. Treatment condition is indicated in the result section. At the end of the treatment, the MTT solution was added to the cell medium at a final concentration of 0.25 mg/mL. The incubation lasted 30 minutes at 37° C. Next, the medium was removed and the formazan precipitates were collected in DMSO (200 μL). The absorbance was measured at 570 nm using a spectrophotometer (Varioskan LUX, Thermofisher) as a proxy for cell viability. Relative cell viability fold is expressed over the control condition.
At the physiological level, Negr1 exists as a GPI-anchored membrane-bound protein and as a soluble protein released upon metalloprotease cleavage (Sanz et al. 2015; Pischedda and Piccoli 2015). Thus, the inventors studied whether ectopic treatment with soluble recombinant Negr1 (Negr1) might modulate cancer cell growth. […] At DIV5, cellular growth was evaluated by MTT assay.
To further narrow down the minimal biologically active sequence within PepA, the PepA structure was analysed in silico. […] At DIV5, cellular growth was evaluated by MTT assay.

U87 (glioblastoma) = assay: Growth of human cancer-derived cell line, MTT assay; format: cell-based; settings: 200 ng daily, vs GFP
Method: as §1
(§2) Next, the capability of Negr1 and peptide PepA to halt the growth of human cancer-derived cell lines, namely U87 (glioblastoma), SK-Mel5 (melanoma), MCF7 (breast adenocarcinoma), A549 (adenocarcinoma alveolar basal epithelial cells), and SH-SY5Y (neuroblastoma) was tested. To this aim, each line was treated daily with 200 ng GFP, rNegr1, or PepA. At DIV5, cellular growth was evaluated by MTT assay. […] Such results are in good agreement with the expression of the receptor ALK, that has been experimentally detected in cancer cell lines of ectodermal origin (including small cell lung carcinoma, breast carcinoma, melanoma, neuroblastoma, and glioblastoma) (Dirks et al. 2002).

SK-Mel5 (melanoma) = assay: as above; format: cell-based; settings: 200 ng daily, vs GFP
Method: as §1, §2

[2] = system: MCF7 (breast adenocarcinoma); assay: as above; format: cell-based; settings: 200 ng daily, vs GFP
Method: as §1, §2

[3] = system: A549 (adenocarcinoma alveolar basal epithelial cells); assay: as above; format: cell-based; settings: 200 ng daily, vs GFP
Method: as §1, §2

SH-SY5Y (neuroblastoma) = assay: as above; format: cell-based; settings: 200 ng daily, vs GFP
Method: as §1, §2

N2a cells [4] = assay: N2a proliferation, cell number at DIV5; format: cell-based, murine; settings: 200 ng daily, vs GFP
Method: Next, 10,000 naive N2a cells were seeded and treated daily with 200 ng Negr1, PepA, PepB, PepC, or GFP. At DIV5, cell number was evaluated.

DGASKGAWLNRSSIIFAGVWGSKDDPRVSISTL (PepA-1-6aa scramble) [reference compound]
ERK1/2 phosphorylation (phospho-ERK/ERK) (ERK1/2): did not alter ERK phosphorylation

GDKWSV (minimum active sequence) [GDKWSV peptide]
ERK1/2 phosphorylation (dot-blot) (ERK1/2; 30 nM): severe reduction of ERK1/2 phosphorylation

NRGDKISVSVSSSSGGRAWDWDIAKPGLAILTF (Scramble-GDKISV) [scr-GDKISV]
ERK1/2 phosphorylation (phospho-ERK/ERK) (ERK1/2): reduced ERK1/2 phosphorylation

Negr1: soluble recombinant full-length Negr1 protein, Strep-FLAG tagged, expressed and purified from HEK293 cells
N2a growth (MTT) at DIV5 (N2a cells [1]; 200 ng daily, vs GFP): significantly reduced N2a growth | N2A growth / cellular vitality (MTT) at DIV5 (N2a cells [1]; 3 μM daily, vs vehicle (Lorlatinib) or GFP (rNegr1, PepA-1)): impaired N2A growth to a similar extent | growth of U87 cells (MTT) at DIV5 (U87 (glioblastoma)): significantly reduce the growth | growth of SK-Mel5 cells (MTT) at DIV5 (SK-Mel5 (melanoma)): significantly reduce the growth | growth of MCF7 cells (MTT) at DIV5 [2]: significantly reduce the growth | growth of A549 cells (MTT) at DIV5 [3]: significantly reduce the growth | growth of SH-SY5Y cells (MTT) at DIV5 (SH-SY5Y (neuroblastoma)): significantly reduce the growth | N2a proliferation (cell number) at DIV5 (N2a cells [4]): significantly reduced N2a proliferation
